26 compounds from patent US20200405696A1, “INHIBITORS OF INDOLEAMINE 2,3-DIOXYGENASE AND/OR TRYPTOPHAN 2,3-DIOXYGENASE” (IDORSIA PHARMACEUTICALS LTD, priority 2018, published 2020) can be followed below.

Test [1] deals with T1, Recombinant human TDO comprising amino acids 19-407 (Homo sapiens, UniProt P48775).
T1 construct: Recombinant human TDO comprising amino acids 19-407 with a N-terminal hexahistidine tag; hexahistidine (His6) (N); made in house; host or cells: E. coli
Briefly: TDO2 enzymatic assay (NFK quantified by LCMS). Format: biochemical. Conditions: 15 nM enzyme, 200 μM L-tryptophan, pH7, 30 minutes pre-incubation at RT; mean values when measured multiple times; read-out: hTDO activity (IC50 in nM). Put shortly:
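NFK formed over 30 min at RT from 200 μM L-tryptophan was measured by LCMS, normalized to d5-tryptophan, after compound (0.5 nM–10 μM, duplicates, 0.6% DMSO) was preincubated 30 min with 15 nM recombinant His-tagged TDO 19-407 in phosphate buffer pH 7. IC50 from four-parameter logistic fit; repeats averaged.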

In test [2] the target is T2, Recombinant full-length human IDO1 (Homo sapiens, UniProt P14902).
T2 construct: Recombinant full-length human IDO1 with a N-terminal hexahistidine tag; hexahistidine (His6) (N); made in house; host or cells: E. coli
T2 sequence (P14902 whole entry): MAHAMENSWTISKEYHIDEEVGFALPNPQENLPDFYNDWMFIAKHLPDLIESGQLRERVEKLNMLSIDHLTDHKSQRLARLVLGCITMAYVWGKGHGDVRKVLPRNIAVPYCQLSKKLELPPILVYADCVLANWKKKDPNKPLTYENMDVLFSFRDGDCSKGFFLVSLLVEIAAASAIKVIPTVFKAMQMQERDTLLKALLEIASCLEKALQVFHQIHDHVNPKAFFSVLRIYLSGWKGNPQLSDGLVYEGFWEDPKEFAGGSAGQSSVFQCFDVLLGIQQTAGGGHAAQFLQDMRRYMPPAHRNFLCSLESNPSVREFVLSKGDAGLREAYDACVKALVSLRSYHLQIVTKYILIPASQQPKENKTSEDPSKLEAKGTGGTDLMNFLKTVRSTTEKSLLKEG
Put plainly: IDO1 enzymatic assay (NFK quantified by LCMS). The class given is biochemical. Conditions: 2 nM enzyme, 5 μM L-tryptophan, pH6.5, 30 minutes pre-incubation at RT; mean values when measured multiple times; read-out: hIDO activity (IC50 in nM). The method in brief:
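IC50 comes from four-parameter logistic fits of duplicate data, with NFK quantified by LCMS and normalized to L-Trp-(indole-d5). Compound (0.5 nM–10 μM) was preincubated 30 min at RT with 2 nM E. coli-expressed IDO1 before a 30 min reaction with 5 μM tryptophan in pH 6.5 buffer containing ascorbate and methylene blue.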

T1 sequence (P48775 19-406 limits assumed): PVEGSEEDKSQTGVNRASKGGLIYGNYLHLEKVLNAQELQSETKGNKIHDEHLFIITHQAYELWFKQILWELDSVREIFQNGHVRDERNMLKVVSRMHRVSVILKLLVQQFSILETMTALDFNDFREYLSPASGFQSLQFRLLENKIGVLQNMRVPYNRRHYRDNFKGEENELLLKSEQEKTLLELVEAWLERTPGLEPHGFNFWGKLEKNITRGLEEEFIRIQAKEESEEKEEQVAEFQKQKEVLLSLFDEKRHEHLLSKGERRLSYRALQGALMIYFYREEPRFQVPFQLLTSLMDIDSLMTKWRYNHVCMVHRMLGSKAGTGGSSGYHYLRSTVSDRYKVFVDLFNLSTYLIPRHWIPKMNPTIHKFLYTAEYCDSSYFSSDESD

For `CCNC(=O)Nc1ccc(-n2cc(C(O)c3c(CC)sc4cncn34)nn2)cc1OC` (racemic) [Example 113, rac-1-Ethyl-3-(4-{4-[(2-ethyl-imidazo[5,1-b]thiazol-3-yl)-hydroxy-methyl]-[1,2,3]triazol-1-yl}-2-methoxy-phenyl)-urea], the half-maximal inhibitory concentration (IC50) – broadly, the concentration that gives 50% inhibition – in test [1] amounted to 7720 nM; in test [2] it was 14.3 nM.
In the case of `COCc1ccc(-n2cc(C(O)c3c(C4CC4)sc4cncn34)nn2)cc1` (racemic) [Example 330, rac-(2-Cyclopropyl-imidazo[5,1-b]thiazol-3-yl)-[1-(4-methoxymethyl-phenyl)-1H-[1,2,3]triazol-4-yl]-methanol], the IC50 in test [1] is more than 10200 nM; in test [2], 31.6 nM.
For `CCc1sc2cncn2c1C(O)c1cn(-c2ccc(C(=O)N(C)C)cc2)nn1` (racemic) [Example 114, rac-4-{4-[(2-Ethyl-imidazo[5,1-b]thiazol-3-yl)-hydroxy-methyl]-[1,2,3]triazol-1-yl}-N,N-dimethyl-benzamide] the same measures were more than 10200 nM and 108 nM.
As to `CNS(=O)(=O)Nc1ccc(-n2cc(C(O)c3c(C4CC4)sc4cncn34)nn2)cc1` (racemic) [Example 256, rac-4-{4-[(2-Cyclopropyl-imidazo[5,1-b]thiazol-3-yl)-hydroxy-methyl]-[1,2,3]triazol-1-yl}-((N-methylsulfamoyl)amino)-benzene], the IC50 is more than 10200 nM in test [1] and 26.3 nM in test [2].
For `OC(c1cn(-c2ccc3c(c2)OCCO3)nn1)c1c(C2CC2)sc2cncn12` (racemic) [Example 39, rac-(2-Cyclopropyl-imidazo[5,1-b]thiazol-3-yl)-[1-(2,3-dihydro-benzo[1,4]dioxin-6-yl)-1H-[1,2,3]triazol-4-yl]-methanol] the same measures were more than 10200 nM and 21.9 nM.
For the compound `COc1ccc(-n2nnc(C(O)c3c(C4CC4)sc4cncn34)c2F)cc1` (racemic) [Example 336, rac-(2-Cyclopropyl-imidazo[5,1-b]thiazol-3-yl)-[5-fluoro-1-(4-methoxy-phenyl)-1H-[1,2,3]triazol-4-yl]-methanol], the IC50 in test [1] was more than 10200 nM; in test [2], 32.7 nM.
Regarding `CC1(c2sc3cncn3c2C(O)c2cn(-c3ccc(OCC4(F)COC4)c(Cl)c3)nn2)CC1` (racemic) [Example 315, rac-{1-[3-Chloro-4-(3-fluoro-oxetan-3-ylmethoxy)-phenyl]-1H-[1,2,3]triazol-4-yl}-[2-(1-methyl-cyclopropyl)-imidazo[5,1-b]thiazol-3-yl]-methanol], the IC50 is more than 10200 nM in test [1] and 19.5 nM in test [2].
As to `OC(c1cn(-c2cccc3[nH]ccc23)nn1)c1c(C2CC2)sc2cncn12` (racemic) [Example 20, rac-(2-Cyclopropyl-imidazo[5,1-b]thiazol-3-yl)-[1-(1H-indol-4-yl)-1H-[1,2,3]triazol-4-yl]-methanol], the IC50 in test [1] is more than 10200 nM; in test [2] it was 21.3 nM.
As for `COC(=O)Nc1ccc(-n2cc(C(O)c3c(C)sc4cncn34)nn2)cc1` (racemic) [Example 58, rac-(4-{4-[Hydroxy-(2-methyl-imidazo[5,1-b]thiazol-3-yl)-methyl]-[1,2,3]triazol-1-yl}-phenyl)-carbamic Acid Methyl Ester], the figures for the IC50 in test [1] and in test [2] were 8050 nM and 69.1 nM, respectively.
For `OC(c1nnc(-c2ccccc2)o1)c1c(C2CC2)sc2cncn12` (racemic) [Example 157, rac-(2-Cyclopropyl-imidazo[5,1-b]thiazol-3-yl)-(5-phenyl-[1,3,4]oxadiazol-2-yl)-methanol] the same measures were more than 10200 nM and 586 nM.
In the case of `OC(c1ncc(-c2ccccc2)s1)c1c(C2CC2)sc2cncn12` (racemic) [Example 171, rac-(2-Cyclopropyl-imidazo[5,1-b]thiazol-3-yl)-(5-phenyl-thiazol-2-yl)-methanol], the concentration for half-maximal inhibition (IC50) in test [1] was more than 10200 nM; in test [2], 578 nM.
With `CCc1sc2cncn2c1C(O)c1cn(-c2ccccc2)nn1` (racemic) [Example 12, rac-(2-Ethyl-imidazo[5,1-b]thiazol-3-yl)-(1-phenyl-1H-[1,2,3]triazol-4-yl)-methanol], the results for the IC50 in test [1] and in test [2] were 6740 nM and 20.8 nM, respectively.
With `OCCCOc1ccc(-n2cc([C@H](O)c3c(C4CC4)sc4cncn34)nn2)cc1Cl` [Example 275, 3-(2-Chloro-4-{4-[(R)-(2-cyclopropyl-imidazo[5,1-b]thiazol-3-yl)-hydroxy-methyl]-[1,2,3]triazol-1-yl}-phenoxy)-propan-1-ol], the IC50 in test [1] was more than 10200 nM; in test [2], 7.03 nM.
For `OCCCOc1ccc(-n2cc([C@H](O)c3c(C4CC4)sc4cncn34)nn2)cc1` [Example 137a, 3-(4-{4-[(R)-(2-Cyclopropyl-imidazo[5,1-b]thiazol-3-yl)-hydroxy-methyl]-[1,2,3]triazol-1-yl}-phenoxy)-propan-1-ol] the same measures were more than 10200 nM and 4.09 nM.
With `COc1ncc(-n2cc(C(O)c3c(C4CC4)sc4cncn34)nn2)cc1F` (racemic) [Example 79, rac-(2-Cyclopropyl-imidazo[5,1-b]thiazol-3-yl)-[1-(5-fluoro-6-methoxy-pyridin-3-yl)-1H-[1,2,3]triazol-4-yl]-methanol], the IC50 in test [1] is more than 10200 nM; in test [2], 7.22 nM.
Regarding `Oc1cc(-n2cc(C(O)c3c(C4CC4)sc4cncn34)nn2)ccc1Cl` (racemic) [Example 217, rac-2-Chloro-5-{4-[(2-cyclopropyl-imidazo[5,1-b]thiazol-3-yl)-hydroxy-methyl]-[1,2,3]triazol-1-yl}-phenol], the IC50 was more than 10200 nM in test [1] and 9.6 nM in test [2].
Regarding `CCc1sc2cncn2c1C(O)c1cn(-c2ccc(OCCCO)c(Cl)c2)nn1` (racemic) [Example 320, rac-3-(2-Chloro-4-{4-[(2-ethyl-imidazo[5,1-b]thiazol-3-yl)-hydroxy-methyl]-[1,2,3]triazol-1-yl}-phenoxy)-propan-1-ol], the IC50 in test [1] stood at 7780 nM; in test [2], 2.1 nM.
For `Cc1sc2cncn2c1C(O)c1cn(-c2ccc(C3(CO)CC3)cc2)nn1` (racemic) [Example 57, rac-{1-[4-(1-Hydroxymethyl-cyclopropyl)-phenyl]-1H-[1,2,3]triazol-4-yl}-(2-methyl-imidazo[5,1-b]thiazol-3-yl)-methanol] the same measures were more than 10200 nM and 391 nM.
For `COc1ccc(-n2cc(C(O)c3c(C4CC4)sc4cncn34)nn2)cn1` (racemic) [Example 69, rac-(2-Cyclopropyl-imidazo[5,1-b]thiazol-3-yl)-[1-(6-methoxy-pyridin-3-yl)-1H-[1,2,3]triazol-4-yl]-methanol] the same measures were more than 10200 nM and 22.7 nM.
Take `Oc1ccc(-n2cc(C(O)c3c(C4CC4)sc4cncn34)nn2)c(OC(F)(F)F)c1` (racemic) [Example 213, rac-4-{4-[(2-Cyclopropyl-imidazo[5,1-b]thiazol-3-yl)-hydroxy-methyl]-[1,2,3]triazol-1-yl}-3-trifluoromethoxy-phenol]: the IC50 came out at 2620 nM in test [1] and 199 nM in test [2].
For `COc1ccc(-n2nnc(C(O)c3c(C4CC4)sc4cncn34)c2C)cc1` (racemic) [Example 252, rac-(2-Cyclopropyl-imidazo[5,1-b]thiazol-3-yl)-[1-(4-methoxy-phenyl)-5-methyl-1H-[1,2,3]triazol-4-yl]-methanol] the same measures were 7010 nM and 4.13 nM.
In the case of `CCc1c(C(O)c2c(C3CC3)sc3cncn23)nnn1-c1ccc(OC)cc1` (racemic) [Example 279, rac-(2-Cyclopropyl-imidazo[5,1-b]thiazol-3-yl)-[5-ethyl-1-(4-methoxy-phenyl)-1H-[1,2,3]triazol-4-yl]-methanol], the IC50 in test [1] was more than 10200 nM; in test [2] it was 13.6 nM.
For `O=C(NCCO)c1ccc(-n2cc(C(O)c3c(C4CC4)sc4cncn34)nn2)cc1` (racemic) [Example 186, rac-4-{4-[(2-Cyclopropyl-imidazo[5,1-b]thiazol-3-yl)-hydroxy-methyl]-[1,2,3]triazol-1-yl}-N-(2-hydroxy-ethyl)-benzamide] the same measures were more than 10200 nM and 17.3 nM.
For `OC(c1cn(-c2ccc(OCC3(F)COC3)cc2)nn1)c1c(C2CC2)sc2cncn12` (racemic) [Example 145, rac-(2-Cyclopropyl-imidazo[5,1-b]thiazol-3-yl)-{1-[4-(3-fluoro-oxetan-3-ylmethoxy)-phenyl]-1H-[1,2,3]triazol-4-yl}-methanol] the same measures were more than 10200 nM and 7.77 nM.
For `CC(C)(O)CCOc1ccc(-n2cc([C@H](O)c3c(C4CC4)sc4cncn34)nn2)cc1Cl` [Example 277, 4-(2-Chloro-4-{4-[(R)-(2-cyclopropyl-imidazo[5,1-b]thiazol-3-yl)-hydroxy-methyl]-[1,2,3]triazol-1-yl}-phenoxy)-2-methyl-butan-2-ol] the same measures were more than 10200 nM and 7.12 nM.
As for `OC(c1cn(-c2ccc(OCCOCC(F)(F)F)cc2)nn1)c1c(C2CC2)sc2cncn12` (racemic) [Example 312, rac-(2-Cyclopropyl-imidazo[5,1-b]thiazol-3-yl)-(1-{4-[2-(2,2,2-trifluoro-ethoxy)-ethoxy]-phenyl}-1H-[1,2,3]triazol-4-yl)-methanol], the results for the IC50 in test [1] and in test [2] were more than 10200 nM and 29.4 nM, respectively.
